Experimental data taken from the pKa sets of Baltruschat and Czodrowski (2020).

pKa	Structure (SMILES)
10.1	CN1CCCCC1
7.4	FC1(F)CCCNC1
7.9	CC(=O)N1CCNCC1
8.7	FC(Cc1c[nH]c2ccc(-n3cnnc3)cc12)CN1CCC(Cc2ccccc2)CC1 (stereo not drawn)
8.5	FC1(F)CCNCC1
9.3	FC1CCCNC1 (stereo not drawn)
9.7	c1ccc(CC2CCN(CCCc3c[nH]c4ccc(-n5cnnc5)cc34)CC2)cc1
6.7	FC(F)(Cc1c[nH]c2ccc(-n3cnnc3)cc12)CN1CCC(Cc2ccccc2)CC1
9.4	FC1CCNCC1
8.8	FC1(Cc2ccccc2)CCN(CCCc2c[nH]c3ccc(-n4cnnc4)cc23)CC1

The remaining lines, values behind:

Structure (SMILES)	pKa
CN(C)CCCCc1ccc(C(C)(C)C)cc1	9.9
CN(C)C	9.8
CCN(C)C	10.2
CN(C)C(C)(C)CCCc1ccc(C(C)(C)C)cc1	10.4
CN(C)CC(C)(C)CCc1ccc(C(C)(C)C)cc1	9.4
NCCCC(F)(F)F	9.7
NCCC(F)(F)F	8.7
CCCCN	10.7
CCCCN(C)C	10.2
NCCCF	9.9
CN(C)CC(F)(F)F	4.8
CN(C)CCCC(C)(C)c1ccc(C(C)(C)C)cc1	9.8
NCC(F)F	7.3
